Values joined by “and” are separate entries in the source; they are usually repeats but may differ in a detail not shown here. Equal values may be shown once.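 Exposure lasted 48 hours, with cells grown in 96-well plates and compounds tested at five concentrations. Here, GI50 denotes the concentration required for 50% inhibition of growth. At the TGI there is no net growth.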
Legend:
Assay in all cases: NCI-60 cell line screen, 48 h
MALME-3M melanoma = test system: MALME-3M melanoma
CAKI-1 renal = test system: CAKI-1 renal
HCC-2998 colon = test system: HCC-2998 colon
BT-549 breast = test system: BT-549 breast
SF-295 CNS = test system: SF-295 CNS
U251 CNS = test system: U251 CNS
COLO 205 colon = test system: COLO 205 colon
LOX IMVI melanoma = test system: LOX IMVI melanoma
HOP-62 NSCLC = test system: HOP-62 NSCLC
OVCAR-4 ovarian = test system: OVCAR-4 ovarian

## Nc1ccc(C(=O)N/C(=C\c2cccc([N+](=O)[O-])c2)c2nc3[nH]c(=S)[nH]c(=O)c3[nH]2)cc1
MALME-3M melanoma
  TGI: > 100 µM
CAKI-1 renal
  TGI: > 100 µM
HCC-2998 colon
  TGI: > 100 µM
BT-549 breast
  TGI: > 100 µM
SF-295 CNS
  TGI: > 96.7 µM
U251 CNS
  TGI: > 85.6 µM
COLO 205 colon
  TGI: > 100 µM
LOX IMVI melanoma
  TGI: > 100 µM
HOP-62 NSCLC
  TGI: 45.6 µM
OVCAR-4 ovarian
  TGI: > 100 µM

## Cc1ccccc1NC(=O)c1sc2nc(C)c(C(=O)/C=C/c3ccccc3)cc2c1N
MALME-3M melanoma
  GI50: 1.43 µM
  TGI: 6.11 µM
CAKI-1 renal
  GI50: 1.08 µM
  TGI: 2.68 µM
HCC-2998 colon
  GI50: 0.913 µM
  TGI: 1.67 µM
BT-549 breast
  GI50: 1.33 µM
  TGI: 5.28 µM
SF-295 CNS
  GI50: 2.43 µM
  TGI: 16.8 µM
U251 CNS
  GI50: 0.951 µM
  TGI: 1.99 µM
COLO 205 colon
  GI50: 1.65 µM
  TGI: 5.27 µM
LOX IMVI melanoma
  GI50: 0.864 µM
  TGI: 1.62 µM
HOP-62 NSCLC
  GI50: 1.15 µM
  TGI: 2.7 µM
OVCAR-4 ovarian
  GI50: 1.42 µM
  TGI: > 50 µM

## CNC(=O)c1c(NC(=O)c2ccc(C(C)(C)C)cc2)sc2c1CCC(=O)C2
MALME-3M melanoma
  GI50: 0.345 µM
  TGI: 1.59 µM
CAKI-1 renal
  GI50: 0.203 µM
  TGI: 0.945 µM
HCC-2998 colon
  GI50: 0.581 µM
  TGI: 2.04 µM
BT-549 breast
  GI50: 0.352 µM
  TGI: 1.68 µM
SF-295 CNS
  GI50: 0.334 µM
  TGI: 1.35 µM
U251 CNS
  GI50: 0.143 µM
  TGI: 1.45 µM
COLO 205 colon
  GI50: 0.2 µM
  TGI: 0.462 µM
LOX IMVI melanoma
  GI50: 0.19 µM
  TGI: 1.31 µM
HOP-62 NSCLC
  GI50: 0.835 µM
  TGI: 3.32 µM
OVCAR-4 ovarian
  GI50: 0.195 µM
  TGI: 0.991 µM

## COc1ccc2c(c1)nc(C(=O)c1ccco1)c(C(F)(F)F)[n+]2[O-]
MALME-3M melanoma
  GI50: > 100 µM
  TGI: > 100 µM
CAKI-1 renal
  GI50: > 100 µM
  TGI: > 100 µM
HCC-2998 colon
  GI50: > 100 µM
  TGI: > 100 µM
BT-549 breast
  GI50: > 100 µM
  TGI: > 100 µM
SF-295 CNS
  GI50: > 100 µM
  TGI: > 100 µM
U251 CNS
  GI50: > 100 µM
  TGI: > 100 µM
COLO 205 colon
  GI50: > 100 µM
  TGI: > 100 µM
LOX IMVI melanoma
  GI50: > 100 µM
  TGI: > 100 µM
HOP-62 NSCLC
  GI50: > 100 µM
  TGI: > 100 µM
OVCAR-4 ovarian
  GI50: > 100 µM
  TGI: > 100 µM

## NCCCC[C@@H]1NC(=O)[C@H](CC(=O)O)NC(=O)CNC(=O)[C@H](CCCN=C(N)N)NC(=O)[C@@H](N)CSSC[C@@H](C(=O)O)NC(=O)[C@H](CC(=O)O)NC(=O)[C@@H]2CCCN2C(=O)CNC1=O
MALME-3M melanoma
  GI50: > 100 µM
  TGI: > 100 µM
CAKI-1 renal
  GI50: > 100 µM
  TGI: > 100 µM
HCC-2998 colon
  GI50: > 100 µM
  TGI: > 100 µM
BT-549 breast
  GI50: > 100 µM
  TGI: > 100 µM
SF-295 CNS
  GI50: > 100 µM
  TGI: > 100 µM
U251 CNS
  GI50: > 100 µM
  TGI: > 100 µM
COLO 205 colon
  GI50: > 100 µM
  TGI: > 100 µM
LOX IMVI melanoma
  GI50: > 100 µM
  TGI: > 100 µM
HOP-62 NSCLC
  GI50: > 100 µM
  TGI: > 100 µM
OVCAR-4 ovarian
  GI50: > 100 µM
  TGI: > 100 µM

## CCC(C)[C@H](NC(=O)Nc1cc(C(F)(F)F)cc(C(F)(F)F)c1)C(=O)N[C@@H](Cc1cn(C)cn1)C(=O)OC (stereo not given in full)
MALME-3M melanoma
  GI50: 1.41 µM
  TGI: 2.01 µM
CAKI-1 renal
  GI50: 2.08 µM
  TGI: 4 µM
HCC-2998 colon
  GI50: 0.696 µM
  TGI: 1.35 µM
BT-549 breast
  GI50: 0.698 µM
  TGI: 1.68 µM
SF-295 CNS
  GI50: 1.36 µM
  TGI: 1.95 µM
U251 CNS
  GI50: 1.33 µM
  TGI: 1.8 µM
COLO 205 colon
  GI50: 1.4 µM
  TGI: 1.89 µM
LOX IMVI melanoma
  GI50: 0.768 µM
  TGI: 1.83 µM
HOP-62 NSCLC
  GI50: 0.919 µM
  TGI: 1.82 µM
OVCAR-4 ovarian
  GI50: 0.599 µM
  TGI: 1.12 µM

## CC1(C)CNc2cc(NC(=O)c3cccnc3NCc3ccncc3)ccc21
MALME-3M melanoma
  GI50: 15.9 µM
  TGI: 84.9 µM
CAKI-1 renal
  GI50: 21.1 µM
  TGI: > 100 µM
HCC-2998 colon
  GI50: 39 µM
  TGI: > 100 µM
BT-549 breast
  GI50: 25.2 µM
  TGI: 98.2 µM
SF-295 CNS
  GI50: 24.2 µM
  TGI: > 100 µM
U251 CNS
  GI50: 39.1 µM
  TGI: > 100 µM
COLO 205 colon
  GI50: 34.2 µM
  TGI: > 100 µM
LOX IMVI melanoma
  GI50: 23.3 µM
  TGI: > 100 µM
HOP-62 NSCLC
  GI50: 50.9 µM
  TGI: > 100 µM
OVCAR-4 ovarian
  GI50: 18 µM
  TGI: > 100 µM

## Cc1ccc(/C=N/Nc2nc(Nc3ccccc3)nc(-n3nc(C)cc3C)n2)cc1
MALME-3M melanoma
  GI50: 4.21 µM
  TGI: 26.8 µM
CAKI-1 renal
  GI50: 2.56 µM
  TGI: 9.45 µM
HCC-2998 colon
  GI50: 2.71 µM
  TGI: 6.6 µM
BT-549 breast
  GI50: 4 µM
  TGI: 34.1 µM
SF-295 CNS
  GI50: 2.74 µM
  TGI: 14.4 µM
U251 CNS
  GI50: 4.88 µM
  TGI: > 100 µM
COLO 205 colon
  GI50: 3.6 µM
  TGI: 13.4 µM
LOX IMVI melanoma
  GI50: 3.81 µM
  TGI: 22.1 µM
HOP-62 NSCLC
  GI50: 5.27 µM
  TGI: 29.2 µM
OVCAR-4 ovarian
  GI50: 3.06 µM
  TGI: 25.5 µM

## CNC(=O)c1cc(Oc2ccc(NC(=O)Nc3ccc(Cl)c(C(F)(F)F)c3)c(F)c2)ccn1
MALME-3M melanoma
  GI50: 0.76 µM and 1.95 µM
  TGI: 5.87 µM and > 10 µM
CAKI-1 renal
  GI50: 2.95 µM
  TGI: > 30.4 µM
HCC-2998 colon
  GI50: 2.44 µM and 1.9 µM
  TGI: 10.4 µM and 8.17 µM
BT-549 breast
  GI50: 2.56 µM and 2.67 µM
  TGI: 8.64 µM and 9.09 µM
SF-295 CNS
  GI50: 2.82 µM and 2.29 µM
  TGI: 19.8 µM and > 10 µM
U251 CNS
  GI50: 2.79 µM and 2.46 µM
  TGI: 11.3 µM and > 10 µM
COLO 205 colon
  GI50: 2.28 µM and 1.36 µM
  TGI: 8.52 µM and 5.74 µM
LOX IMVI melanoma
  GI50: 1.12 µM and 0.787 µM
  TGI: 6.93 µM and > 10 µM
HOP-62 NSCLC
  GI50: 2.83 µM and 2.33 µM
  TGI: 14.5 µM and > 10 µM
OVCAR-4 ovarian
  GI50: 2.56 µM and 2.74 µM
  TGI: 19.7 µM and > 10 µM

## COc1ccc2c(c1OC)CO[C@@H]2[C@H]1c2c(cc3c(c2OC)OCO3)CCN1S(=O)(=O)c1cn(C)cn1
MALME-3M melanoma
  GI50: 0.77 µM
  TGI: > 100 µM
CAKI-1 renal
  GI50: 1.01 µM
  TGI: > 100 µM
HCC-2998 colon
  GI50: 3.23 µM
  TGI: > 100 µM
BT-549 breast
  GI50: 2.87 µM
  TGI: 84.8 µM
SF-295 CNS
  GI50: 1.18 µM
  TGI: > 100 µM
U251 CNS
  GI50: 2.24 µM
  TGI: > 100 µM
COLO 205 colon
  GI50: 1.72 µM
  TGI: 11.6 µM
LOX IMVI melanoma
  GI50: 4.48 µM
  TGI: > 100 µM
HOP-62 NSCLC
  GI50: 1.88 µM
  TGI: > 100 µM
OVCAR-4 ovarian
  GI50: 6.65 µM
  TGI: > 100 µM

## COc1cc(/C=N/Nc2ncnc3c2cnn3-c2ccccc2)ccc1O
MALME-3M melanoma
  GI50: > 25 µM
  TGI: > 25 µM
CAKI-1 renal
  GI50: 2.52 µM
  TGI: > 25 µM
HCC-2998 colon
  GI50: 21.6 µM
  TGI: > 25 µM
BT-549 breast
  GI50: > 25 µM
  TGI: > 25 µM
SF-295 CNS
  GI50: > 15.5 µM
  TGI: > 25 µM
U251 CNS
  GI50: 11.6 µM
  TGI: > 25 µM
COLO 205 colon
  GI50: > 14.6 µM
  TGI: > 25 µM
LOX IMVI melanoma
  GI50: 10.3 µM
  TGI: > 25 µM
HOP-62 NSCLC
  GI50: 16.9 µM
  TGI: > 25 µM
OVCAR-4 ovarian
  GI50: 15.5 µM
  TGI: > 25 µM

## Cc1ccc(S(=O)(=O)SC(C)(C)C)cc1
MALME-3M melanoma
  TGI: > 62 µM
CAKI-1 renal
  TGI: 41.4 µM
HCC-2998 colon
  TGI: > 58.7 µM
BT-549 breast
  TGI: 42.3 µM
SF-295 CNS
  TGI: > 100 µM
U251 CNS
  TGI: > 100 µM
COLO 205 colon
  TGI: > 92.5 µM
LOX IMVI melanoma
  TGI: 60.1 µM
HOP-62 NSCLC
  TGI: > 100 µM
OVCAR-4 ovarian
  TGI: 46.5 µM

## CC1=C(SCCC(=O)OC(C[Se]C2=C(C)C(=O)c3ccccc3C2=O)C(=O)NCCCCCC(=O)OCc2ccccc2)C(=O)c2ccccc2C1=O (stereo not given)
MALME-3M melanoma
  GI50: 2.07 µM
  TGI: 6.96 µM
CAKI-1 renal
  GI50: 6.89 µM
  TGI: 21.3 µM
HCC-2998 colon
  GI50: 6.52 µM
  TGI: 18.5 µM
BT-549 breast
  GI50: 3.81 µM
  TGI: 12.9 µM
SF-295 CNS
  GI50: 2.49 µM
  TGI: 8.7 µM
U251 CNS
  GI50: 4.09 µM
  TGI: 13.6 µM
COLO 205 colon
  GI50: 7.95 µM
  TGI: 22.6 µM
LOX IMVI melanoma
  GI50: 2.75 µM
  TGI: 11.5 µM
HOP-62 NSCLC
  GI50: 3.82 µM
  TGI: 14.4 µM
OVCAR-4 ovarian
  GI50: 12.3 µM
  TGI: 25.1 µM

Reference: PubChem BioAssay (NCI)
